Patent publication US8835472B2, “Compounds, pharmaceutical compositions and uses thereof” (Boehringer Ingelheim International GmbH, priority 2010, dated 2014)
pIC50: −log10 of the molar value.

These molecules were tested against human ACC2 (Homo sapiens (Human), UniProt O00763) (assay: ACC2 assay, spectrophotometric 384 well assay (NADH-linked, coupled lactate dehydrogenase/pyruvate kinase reaction)). Details: hACC2 construct lacking the 128 N-terminal amino acids; 25° C., 340 nm over 15 minutes.
Format: biochemical
Procedure, shortened: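 Kinetic NADH-linked assay (pyruvate kinase/lactate dehydrogenase coupling) with baculovirus-expressed hACC2 missing its first 128 amino acids. Started with 500 μM ATP and 200 μM each NADH and acetyl-CoA; slope followed 15 min at 25 °C, pH 7.5. No-acetyl-CoA wells define 0%; IC50 by nonlinear regression.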

Sequence of human ACC2 (O00763 129-2458): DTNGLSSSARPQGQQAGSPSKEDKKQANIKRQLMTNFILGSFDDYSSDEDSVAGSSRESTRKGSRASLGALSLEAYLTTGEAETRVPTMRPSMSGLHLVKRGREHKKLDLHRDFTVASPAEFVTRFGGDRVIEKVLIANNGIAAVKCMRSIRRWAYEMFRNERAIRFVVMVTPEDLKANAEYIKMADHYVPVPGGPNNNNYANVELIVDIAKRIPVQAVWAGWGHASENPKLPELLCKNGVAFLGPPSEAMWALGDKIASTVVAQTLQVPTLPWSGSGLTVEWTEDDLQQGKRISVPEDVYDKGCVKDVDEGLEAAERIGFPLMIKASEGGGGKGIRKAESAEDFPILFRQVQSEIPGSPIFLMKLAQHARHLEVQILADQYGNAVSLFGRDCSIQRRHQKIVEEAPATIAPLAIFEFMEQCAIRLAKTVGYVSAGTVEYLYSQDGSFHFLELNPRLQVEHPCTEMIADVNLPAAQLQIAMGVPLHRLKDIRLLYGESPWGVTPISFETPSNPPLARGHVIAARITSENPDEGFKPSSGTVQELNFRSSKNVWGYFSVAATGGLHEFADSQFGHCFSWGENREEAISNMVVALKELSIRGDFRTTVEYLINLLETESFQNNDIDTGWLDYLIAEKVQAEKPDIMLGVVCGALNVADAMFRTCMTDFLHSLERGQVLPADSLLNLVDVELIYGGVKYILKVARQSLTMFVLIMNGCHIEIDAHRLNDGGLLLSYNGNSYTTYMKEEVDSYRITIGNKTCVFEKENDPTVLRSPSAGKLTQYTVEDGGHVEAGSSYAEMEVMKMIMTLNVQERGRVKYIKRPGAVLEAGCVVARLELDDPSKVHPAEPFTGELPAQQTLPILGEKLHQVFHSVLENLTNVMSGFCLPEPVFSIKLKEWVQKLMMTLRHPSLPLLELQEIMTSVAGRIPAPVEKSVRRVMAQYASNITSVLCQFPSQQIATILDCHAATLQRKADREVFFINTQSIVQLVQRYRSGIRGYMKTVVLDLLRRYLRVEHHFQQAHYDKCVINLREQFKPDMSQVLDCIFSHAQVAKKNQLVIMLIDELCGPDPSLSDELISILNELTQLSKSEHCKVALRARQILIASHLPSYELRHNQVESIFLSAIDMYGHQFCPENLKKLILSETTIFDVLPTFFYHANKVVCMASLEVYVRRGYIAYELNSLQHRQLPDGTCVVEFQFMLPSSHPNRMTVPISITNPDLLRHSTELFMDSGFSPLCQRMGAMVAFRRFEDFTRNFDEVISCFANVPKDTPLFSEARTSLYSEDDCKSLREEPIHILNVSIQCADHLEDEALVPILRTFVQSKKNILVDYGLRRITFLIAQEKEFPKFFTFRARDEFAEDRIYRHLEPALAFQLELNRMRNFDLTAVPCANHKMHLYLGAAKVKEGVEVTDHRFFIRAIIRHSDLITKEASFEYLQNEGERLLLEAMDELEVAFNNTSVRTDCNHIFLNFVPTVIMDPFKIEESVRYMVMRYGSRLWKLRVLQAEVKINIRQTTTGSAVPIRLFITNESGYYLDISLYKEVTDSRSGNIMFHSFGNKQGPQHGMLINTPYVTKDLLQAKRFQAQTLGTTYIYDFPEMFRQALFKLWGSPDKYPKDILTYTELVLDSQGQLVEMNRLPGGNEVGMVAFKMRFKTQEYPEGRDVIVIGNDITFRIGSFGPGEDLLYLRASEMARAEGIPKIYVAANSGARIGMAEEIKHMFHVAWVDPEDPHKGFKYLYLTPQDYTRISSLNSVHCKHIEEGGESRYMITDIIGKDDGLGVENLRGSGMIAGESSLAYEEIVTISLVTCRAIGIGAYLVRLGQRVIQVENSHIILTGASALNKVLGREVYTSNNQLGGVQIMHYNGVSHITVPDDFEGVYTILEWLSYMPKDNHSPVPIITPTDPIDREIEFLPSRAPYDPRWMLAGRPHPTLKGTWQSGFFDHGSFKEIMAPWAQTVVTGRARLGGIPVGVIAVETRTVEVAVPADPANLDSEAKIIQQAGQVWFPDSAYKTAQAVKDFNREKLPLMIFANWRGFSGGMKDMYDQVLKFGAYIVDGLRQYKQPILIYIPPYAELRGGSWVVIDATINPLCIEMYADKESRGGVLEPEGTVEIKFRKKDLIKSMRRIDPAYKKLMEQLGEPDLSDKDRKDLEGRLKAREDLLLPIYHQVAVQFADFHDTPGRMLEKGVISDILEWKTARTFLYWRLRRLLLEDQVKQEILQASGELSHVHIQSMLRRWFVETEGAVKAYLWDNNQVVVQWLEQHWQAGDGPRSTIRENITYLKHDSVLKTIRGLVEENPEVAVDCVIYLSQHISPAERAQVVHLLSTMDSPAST

Row | SMILES | pIC50
1 | CC(CNC(=O)C1CC1)c1ccc(C#Cc2cnc(OC3CCC3)nc2)cc1 (centres unmarked) [Example 32.4] | 6.09
2 | CCCOc1ccc(C#Cc2ccc(C(C)CNC(=O)N(C)C)cc2)cc1 (centres unmarked) [Example 33.1, 1,1-Dimethyl-3-{2-[4-(4-propoxy-phenylethynyl)-phenyl]-propyl}-urea] | 6.80
3 | CC(CNC(=O)N(C)C)c1ccc(C#Cc2cnc(OC3CCC3)nc2)cc1 (centres unmarked) [Example 33.2] | 6.89
4 | CCNC(=O)NCC(C)c1ccc(C#Cc2cnc(OC3CCC3)nc2)cc1 (centres unmarked) [Example 33.3] | 5.64
5 | COC(=O)NCC(C)c1ccc(C#Cc2cnc(OC3CCC3)nc2)cc1 (centres unmarked) [Example 33.4] | 6.28

Now from value to molecule:

Row | pIC50 | SMILES
6 | 7.15 | CCCOc1ccc(C#Cc2ccc(CC(C)(C)NC(C)=O)cc2)cc1 [Example 35.1, N-(1,1-Dimethyl-2-(4-(4-propoxyphenylethynyl)-phenyl)-ethyl)-acetamide]
7 | 6.48 | CCCOc1ccc(C#Cc2ccc(CC(C)(C)NC(=O)C3CC3)cc2)cc1 [Example 35.2]
8 | 4.57 | CCOc1ccc(C#Cc2ccc(CCNC(C)=O)cn2)cc1 [Example 35.3]
